Patent publication US6812010B1, “Method for enzymatic preparation of homogentisate” (Aventis Cropscience SA, priority 1997, dated 2004)

Assays:
[1] = test system: HPA-hydroxylase (protein extract from Pseudomonas acidovorans); assay: HPA-hydroxylase activity assay with inhibition by an HPPD inhibitor (HPLC detection of HMO); type: biochemical; details: 100 μM of HPPD inhibitor; 30° C., 5 min
Protocol: The cell pellet, which is approximately 0.5 g, is resuspended in 1.5 ml of extraction buffer (0.1 M potassium phosphate pH 7.2, 1 mM DTE and 5 mM MgMgSO4) and sonicated twice at 23 kHz for 2.5 min. The resulting suspension is centrifuged at 44,000×g for 20 min. The harvested supernatant is again centrifuged at 100,000×g for 60 min. The new supernatant is aliquoted in 0.1-ml fractions, these fractions being kept at −80° C. before use. The HPA-hydroxylase activity is measured in a 96-well microtitration plate with 200 μl of reaction per well consisting of 150 μl of 0.1 M sodium phosphate fits pH 7.2, 10 μl of 20 mM DTE, 10 μl of 3 mM NADH, 15 μl of 67 μM FAD, 10 μl of protein (i.e. approximately 7 μg) and 5 μl of 10 mM HPA. When an assay for inhibition by an HPPD inhibitor is carried out, 2 μl of 10 mM 4-[4-trifluoromethyl-2-(methylsulphonyl)benzoyl]-5-cyclopropylisoxazole are added to a phosphate buffer containing 20% of DMSO. The reaction is initiated by adding the substrate, HPA; it takes place at 30° C. for 5 min. with stirring. The reaction is stopped by adding 33 μl of 25% perchloric acid. The plate is then centrifuged at 2000 rpm for 15 min., and the supernatant is analysed by HPLC. 10 μl of the supernatant is injected onto a Spherisorb ODS2 column equilibrated with buffer A (5.5% acetonitrile, 0.1% TFA) at the flow rate of 1.5 ml/min. The detection is carried out at 292 nm. […]

[2] = test system: HPP-oxidase (protein extract from Arthrobacter globiformis); assay: HPP-oxidase activity assay with inhibition by an HPPD inhibitor (HPLC detection of HPA); type: biochemical; details: 100 μM of HPPD inhibitor; 30° C., 5 min
Protocol: The cell pellet, which is approximately 3.4 g, is resuspended in 7 ml of extraction buffer (0.05 M potassium phosphate pH 7.5, 0.1 mM TPP, 0.1 mM MgCl2 and 5 mM mercaptoethanol) and sonicated twice at 23 kHz for 2.5 min. The resulting suspension is centrifuged at 44,000×g for 20 min. The harvested supernatant is again centrifuged at 100,000×g for 60 min. 0.7 ml of 2% protamine sulphate in the extraction buffer is added to the new 7-ml supernatant, followed by gentle stirring. The precipitate which forms is removed by a centrifugation at 20,000×g for 20 min. Ammonium sulphate is gradually added to the supernatant thus obtained so as to reach 60% saturation. This new preparation is stirred for 30 min., and the precipitate formed harvested by centrifugation at 20,000×g for 20 min. The pellet is redissolved in 0.5 ml of extraction buffer and aliquoted in 0.1-ml fractions, these fractions being kept at −80° C. before use.
The HPP-oxidase activity is measured in a 96-well microtitration plate with 200 μl of reaction per well consisting of […] of 67 mM sodium phosphate pH 7.4, 10 μl of 13.4 mM glutathione, 10 μl of 67 mM MgCl2, 10 μl of 26.7 mM TPP, 10 μl of 67 μM FAD, […] (i.e. approximately 6 μg) and 10 μl of 2.5 mM HPP. […]
The plate is then centrifuged at 2000 rpm for 15 min., and the supernatant is analysed by HPLC. […]

CS(=O)(=O)c1cc(C(F)(F)F)ccc1C(=O)c1cnoc1C1CC1 [HPPD inhibitor, 4-[4-trifluoromethyl-2-(methylsulphonyl)benzoyl]-5-cyclopropylisoxazole]
inhibition of the enzyme transforming HPA into HMO [1]: not inhibited | inhibition of the enzyme transforming HPP into HPA [2]: not inhibited
